# Test results taken from EP0055702B1, “Antithrombotic treatment” (priority 1980, dated 1982).
# “And” between values parts separate entries of the source, which are not always exact repeats. Identical values can stand only once.
# Columns and labels:
# Prothrombin = molecular target: T1, Prothrombin (Homo sapiens, UniProt P00734); assay: Prothrombin (Factor II) assay, Example 4; assay type: biochemical; conditions: for Prothrombin: Control 87
# T1 construct: from tissue; host or cells: human plasma
# Text: (§1) The evaluation procedure used is that described in "Human Blood Coagulation, Haemostasis and Thrombosis", edited by Rosemary Biggs, published by Blackwell Scientific Publications, Oxford, England (2nd Edition), pages 670-705, 1976. […]
# human plasma = assay: Thrombin Time, Example 4; assay type: biochemical; conditions: Control 12.00
# Text: as §1
# rats = assay: Rats fed bait containing 0.5% sodium bisulphite; assay type: in vivo
# Text: Five rats, each in a separate cage, were given a bait containing 0.5 percent by weight of sodium bisulphite. The bait consisted of cracked grains (wheat, corn, millet and corn meal). The amounts of bait eaten were summarized for an eleven day period.
# Fibrinogen = molecular target: T2, Fibrinogen (Homo sapiens, UniProt P02671+P02675+P02679); assay: Fibrinogen assay, Example 4; assay type: biochemical; conditions: Control 218; for Fibrogen: solution D
# T2 construct: from tissue; host or cells: human plasma
# T2 sequence (P02671 20-629 limits assumed): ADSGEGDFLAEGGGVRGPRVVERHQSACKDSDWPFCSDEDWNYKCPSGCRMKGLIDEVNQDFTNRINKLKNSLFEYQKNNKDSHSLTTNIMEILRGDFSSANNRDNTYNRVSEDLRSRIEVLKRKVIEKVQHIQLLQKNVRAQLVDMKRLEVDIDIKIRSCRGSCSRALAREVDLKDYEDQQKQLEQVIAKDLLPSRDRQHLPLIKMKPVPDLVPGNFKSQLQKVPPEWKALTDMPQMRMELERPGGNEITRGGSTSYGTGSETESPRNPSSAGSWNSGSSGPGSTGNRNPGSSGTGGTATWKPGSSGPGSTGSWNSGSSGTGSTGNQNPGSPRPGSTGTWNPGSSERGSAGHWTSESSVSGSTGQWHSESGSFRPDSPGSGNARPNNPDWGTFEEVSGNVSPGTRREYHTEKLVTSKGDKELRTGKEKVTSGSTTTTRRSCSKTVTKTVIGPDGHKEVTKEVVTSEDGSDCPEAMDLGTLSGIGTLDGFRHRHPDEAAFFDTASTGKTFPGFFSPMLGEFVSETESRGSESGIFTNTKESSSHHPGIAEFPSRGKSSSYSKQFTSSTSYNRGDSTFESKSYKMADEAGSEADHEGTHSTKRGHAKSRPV
# T2 sequence (P02675 31-491): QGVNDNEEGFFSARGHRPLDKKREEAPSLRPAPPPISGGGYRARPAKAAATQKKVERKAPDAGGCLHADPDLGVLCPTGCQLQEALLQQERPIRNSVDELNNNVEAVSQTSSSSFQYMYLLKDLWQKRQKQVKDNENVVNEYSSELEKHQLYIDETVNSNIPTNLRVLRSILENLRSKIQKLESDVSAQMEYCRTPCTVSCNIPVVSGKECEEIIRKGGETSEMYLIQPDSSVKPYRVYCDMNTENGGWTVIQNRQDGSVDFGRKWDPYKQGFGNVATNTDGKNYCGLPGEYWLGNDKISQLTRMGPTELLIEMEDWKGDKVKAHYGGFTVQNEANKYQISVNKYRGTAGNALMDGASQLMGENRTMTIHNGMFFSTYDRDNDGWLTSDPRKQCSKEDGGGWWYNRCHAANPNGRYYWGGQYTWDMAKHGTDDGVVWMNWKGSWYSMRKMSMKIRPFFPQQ
# T2 sequence (P02679 27-453): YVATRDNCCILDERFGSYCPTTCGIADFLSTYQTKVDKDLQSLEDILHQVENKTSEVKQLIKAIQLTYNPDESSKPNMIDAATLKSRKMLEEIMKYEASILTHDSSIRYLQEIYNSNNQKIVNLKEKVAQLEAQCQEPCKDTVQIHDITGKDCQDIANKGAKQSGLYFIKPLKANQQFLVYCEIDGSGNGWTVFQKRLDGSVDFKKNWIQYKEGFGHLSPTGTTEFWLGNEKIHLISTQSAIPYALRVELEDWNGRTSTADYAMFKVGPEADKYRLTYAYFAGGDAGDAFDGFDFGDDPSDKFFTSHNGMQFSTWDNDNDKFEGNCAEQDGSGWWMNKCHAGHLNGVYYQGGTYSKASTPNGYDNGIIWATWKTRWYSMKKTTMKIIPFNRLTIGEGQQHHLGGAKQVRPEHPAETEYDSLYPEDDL
# Text: as §1
# F VIII = molecular target: T3, F VIII (Homo sapiens, UniProt P00451); assay: Factor VIII assay, Example 4; assay type: biochemical; conditions: for F VIII: Control 57
# T3 construct: from tissue; host or cells: human plasma
# T3 sequence (P00451 20-2351): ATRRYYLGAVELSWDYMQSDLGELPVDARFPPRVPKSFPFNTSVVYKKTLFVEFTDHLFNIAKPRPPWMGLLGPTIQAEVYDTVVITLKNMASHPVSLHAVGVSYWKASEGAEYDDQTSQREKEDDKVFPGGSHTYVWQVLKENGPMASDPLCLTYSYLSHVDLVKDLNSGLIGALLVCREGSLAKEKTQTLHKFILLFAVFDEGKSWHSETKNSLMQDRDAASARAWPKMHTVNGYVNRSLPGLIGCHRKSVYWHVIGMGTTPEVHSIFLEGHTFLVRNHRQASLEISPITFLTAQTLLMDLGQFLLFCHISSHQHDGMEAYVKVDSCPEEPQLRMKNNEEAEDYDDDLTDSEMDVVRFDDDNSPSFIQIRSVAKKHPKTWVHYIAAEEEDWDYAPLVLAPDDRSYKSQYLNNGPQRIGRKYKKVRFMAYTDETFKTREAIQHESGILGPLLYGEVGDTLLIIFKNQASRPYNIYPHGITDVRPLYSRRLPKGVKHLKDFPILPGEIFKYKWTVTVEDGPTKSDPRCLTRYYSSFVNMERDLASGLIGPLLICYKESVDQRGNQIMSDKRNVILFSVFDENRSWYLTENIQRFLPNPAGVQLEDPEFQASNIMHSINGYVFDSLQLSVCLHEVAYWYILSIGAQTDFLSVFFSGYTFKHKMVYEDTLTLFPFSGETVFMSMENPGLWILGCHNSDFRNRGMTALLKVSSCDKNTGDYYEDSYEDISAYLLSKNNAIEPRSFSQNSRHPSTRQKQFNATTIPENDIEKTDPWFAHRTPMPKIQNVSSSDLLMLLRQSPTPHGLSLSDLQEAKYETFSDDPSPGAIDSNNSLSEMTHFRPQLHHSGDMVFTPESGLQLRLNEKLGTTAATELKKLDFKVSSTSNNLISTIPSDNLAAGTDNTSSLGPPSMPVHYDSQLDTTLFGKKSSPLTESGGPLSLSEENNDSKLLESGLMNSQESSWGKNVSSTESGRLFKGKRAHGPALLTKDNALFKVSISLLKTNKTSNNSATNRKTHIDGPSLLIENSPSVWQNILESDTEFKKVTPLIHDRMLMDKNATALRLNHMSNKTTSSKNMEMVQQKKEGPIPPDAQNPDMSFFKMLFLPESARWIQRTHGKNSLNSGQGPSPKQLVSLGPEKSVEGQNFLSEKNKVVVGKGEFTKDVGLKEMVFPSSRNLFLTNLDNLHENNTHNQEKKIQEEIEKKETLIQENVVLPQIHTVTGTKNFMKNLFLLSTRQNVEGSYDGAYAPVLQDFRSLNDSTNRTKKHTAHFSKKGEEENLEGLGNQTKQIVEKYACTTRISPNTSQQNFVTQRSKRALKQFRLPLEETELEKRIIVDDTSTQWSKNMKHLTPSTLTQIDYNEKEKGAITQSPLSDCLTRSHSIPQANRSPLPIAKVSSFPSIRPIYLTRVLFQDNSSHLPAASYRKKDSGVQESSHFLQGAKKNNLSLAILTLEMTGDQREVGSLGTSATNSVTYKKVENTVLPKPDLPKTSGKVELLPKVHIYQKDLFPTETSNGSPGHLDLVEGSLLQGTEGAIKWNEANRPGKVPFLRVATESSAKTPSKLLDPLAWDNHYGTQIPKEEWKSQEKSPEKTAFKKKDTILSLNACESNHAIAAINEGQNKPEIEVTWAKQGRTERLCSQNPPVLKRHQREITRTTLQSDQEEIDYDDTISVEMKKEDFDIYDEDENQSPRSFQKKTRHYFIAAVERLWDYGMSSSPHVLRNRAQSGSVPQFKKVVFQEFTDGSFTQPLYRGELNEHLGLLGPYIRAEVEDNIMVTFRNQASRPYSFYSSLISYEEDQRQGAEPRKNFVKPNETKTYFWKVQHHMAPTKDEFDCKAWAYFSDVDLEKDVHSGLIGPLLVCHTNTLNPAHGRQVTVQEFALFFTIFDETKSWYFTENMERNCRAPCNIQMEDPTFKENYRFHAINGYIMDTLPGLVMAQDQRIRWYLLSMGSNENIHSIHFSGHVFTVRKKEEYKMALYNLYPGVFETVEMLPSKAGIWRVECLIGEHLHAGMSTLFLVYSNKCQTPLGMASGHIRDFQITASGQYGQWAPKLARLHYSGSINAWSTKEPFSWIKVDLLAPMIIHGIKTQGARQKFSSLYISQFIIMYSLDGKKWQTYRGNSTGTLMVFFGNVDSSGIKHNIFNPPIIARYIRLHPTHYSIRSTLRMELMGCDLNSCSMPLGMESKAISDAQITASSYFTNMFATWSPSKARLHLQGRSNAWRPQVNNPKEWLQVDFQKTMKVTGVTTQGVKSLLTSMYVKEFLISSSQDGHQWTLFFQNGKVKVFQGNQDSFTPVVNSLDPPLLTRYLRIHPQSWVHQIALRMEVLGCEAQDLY
# Text: as §1
# [1] = Sodium bisulphite 0.01 mg/ml, solution D
# [2] = Sodium bisulphite 0.05 mg/ml, solution D
# [3] = Sodium bisulphite 0.1 mg/ml, solution D
# [4] = Sodium bisulphite 0.5 mg/ml, solution D
# [5] = Sodium bisulphite 1.0 mg/ml, solution D
# [6] = Sodium bisulphite 5.0 mg/ml, solution D
# [7] = chemical grade sodium bisulphite 0.01 mg/ml
# [8] = chemical grade sodium bisulphite 0.05 mg/ml
# [9] = chemical grade sodium bisulphite 0.1 mg/ml
# [10] = chemical grade sodium bisulphite 0.5 mg/ml
# [11] = chemical grade sodium bisulphite 1.0 mg/ml
# [12] = chemical grade sodium bisulphite 5.0 mg/ml
substance,measurement,setting,value
Sodium bisulphite,Prothrombin,Prothrombin; [1],79%
same,Prothrombin,Prothrombin; [2],80%
same,Prothrombin,Prothrombin; [3],72%
same,Prothrombin,Prothrombin; [4],40%
same,Prothrombin,Prothrombin; [5],26%
same,Prothrombin,Prothrombin; [6],5%
same,Prothrombin,Prothrombin; [7],88%
same,Prothrombin,Prothrombin; [8],82%
same,Prothrombin,Prothrombin; [9],75%
same,Prothrombin,Prothrombin; [10],34%
same,Prothrombin,Prothrombin; [11],25%
same,Prothrombin,Prothrombin; [12],8%
same,effect on Factor II,Prothrombin; human plasma,mildly affected
same,TT,human plasma; [1],12.07 s
same,TT,human plasma; [2],12.10 s
same,TT,human plasma; [3],12.00 s
same,TT,human plasma; [4],13.97 s
same,TT,human plasma; [5],16.08 s
same,TT,human plasma; [6],34.3 s
same,TT,human plasma; [7],12.20 s
same,TT,human plasma; [8],12.30 s
same,TT,human plasma; [9],12.15 s
same,TT,human plasma; [10],14.53 s
same,TT,human plasma; [11],16.23 s
same,TT,human plasma; [12],35.5 s
same,death of rat,"rats; 2 days, Rat 1 and Rat 4, bait with 0.5% sodium bisulphite",Died
same,First day blood factor PT,"rats; Rat 5, bait with 0.5% sodium bisulphite",27
same,"First day blood factor PT, increase","rats; Rats 1, 2, 3, bait with 0.5% sodium bisulphite",26% increase and 24% increase and 28% increase
same,"change in PTT, first day",rats; three rats with increased PT,no apparent change
same,Fibrogen,Fibrinogen; Sodium bisulphite 0.01 mg/ml,222 mg%
same,Fibrogen,Fibrinogen; Sodium bisulphite 0.05 mg/ml,228 mg%
same,Fibrogen,Fibrinogen; Sodium bisulphite 0.1 mg/ml,217 mg%
same,Fibrogen,Fibrinogen; Sodium bisulphite 0.5 mg/ml,190 mg%
same,Fibrogen,Fibrinogen; Sodium bisulphite 1.0 mg/ml,185 mg%
same,Fibrogen,Fibrinogen; Sodium bisulphite 5.0 mg/ml,130 mg%
same,Fibrinogen,Fibrinogen; [7],228 mg%
same,Fibrinogen,Fibrinogen; [8],245 mg%
same,Fibrinogen,Fibrinogen; [9],218 mg%
same,Fibrinogen,Fibrinogen; [10],182 mg%
same,Fibrinogen,Fibrinogen; [11],184 mg%
same,Fibrinogen,Fibrinogen; [12],119 mg%
same,F VIII,F VIII; [1],62%
same,F VIII,F VIII; [2],68%
same,F VIII,F VIII; [3],55%
same,F VIII,F VIII; [4],58%
same,F VIII,F VIII; [5],29%
same,F VIII,F VIII; [6],11%
same,F VIII,F VIII; [7],58
same,F VIII,F VIII; [8],55
same,F VIII,F VIII; [9],56
same,F VIII,F VIII; [10],55
same,F VIII,F VIII; [11],31
same,F VIII,F VIII; [12],13
same,effect on Factor VIII,F VIII; human plasma,mildly affected
